Columns and labels:
human MRGPRX2 = molecular target: T1, human MRGPRX2 (Homo sapiens, UniProt Q96LB1); experiment: MRGPRX2 Activity Assay (IP-1 HTRF, antagonist mode); assay type: cell-based; conditions: FlpIn TRex-MRGPRX2-HEK293 cells; versus 1 μM Cortistatin-14 agonist; 30 minutes preincubation
T1 construct: expressed in transfected cells; host or cells: FlpIn TRex HEK293 (TRex-MRGPRX2-HEK), doxycycline-induced
T1 sequence (Q96LB1 1-330): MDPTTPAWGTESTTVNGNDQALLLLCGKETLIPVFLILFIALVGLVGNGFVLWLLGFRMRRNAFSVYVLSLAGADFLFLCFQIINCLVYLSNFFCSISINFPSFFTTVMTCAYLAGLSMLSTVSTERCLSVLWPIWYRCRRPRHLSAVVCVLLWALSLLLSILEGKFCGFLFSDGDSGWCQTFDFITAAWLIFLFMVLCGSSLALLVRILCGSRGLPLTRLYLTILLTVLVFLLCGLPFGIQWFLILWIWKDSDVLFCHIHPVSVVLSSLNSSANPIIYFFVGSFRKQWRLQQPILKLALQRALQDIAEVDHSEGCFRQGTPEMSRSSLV
Summary of the method: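 Doxycycline-induced (100 ng/mL, 18-24 h) TRex HEK293 cells stably expressing human MRGPRX2, in HBSS/20 mM HEPES/0.1% BSA/10 mM LiCl. Compounds (top final 30 uM, 1% DMSO) preincubated 30 min, then agonist stimulation 1 h at 37° C without wash. IP-1 accumulation read by HTRF; IC50 from 4-parameter fit.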

LAD-2 cells = experiment: LAD2 Degranulation Assay (Protocol 2), β-hexosaminidase release; assay type: cell-based; conditions: Homo sapiens; for IC50: 0.5 μM Cortistatin-14, 2 h preincubation, cells without SCF 18-24 hours, top concentration 3 μM; for activity at 0.25 µM: single point 250 nM, 0.5 μM Cortistatin-14, % control β-hexosaminidase activity
Protocol: LAD-2 cells were maintained at 37° C. with 5% CO2 and grown in complete StemPro-34 media supplemented with 1% L-Glutamate, 1% penicillin/streptomycin, and 250 ng/mL human SCF.
18-24 hours prior to experiment, LAD-2 cells were collected and transferred to growth media without SCF. On the day of experiment, cells were collected by centrifugation and seeded in 384-well assay plates, at 4,000 cells per well in 17 μl freshly made assay buffer (10 mM HEPES, 137 mM NaCl, 2.7 mM KCl, 1.8 mM CaCl2), 1.0 mM MgCl2, 5.6 mM glucose, 0.4 mM NaH2PO4, 0.04% BSA, pH=7.40). For dose-response assays, compounds solubilized in 100% DMSO at 30 mM were serially diluted (1:3) first in 100% DMSO, and 2 intermediate dilutions with assay buffer were used to establish a final top concentration of 3 μM (in assay plate). For single point assays, dilution of DMSO stocks to 250 nM (in assay plate) was performed in the same manner as described for dose-response assays. Final DMSO concentration was kept constant at 0.1% across plates for all assays. Cortistatin-14 at 30 mM stock concentration was solubilized in HBSS+0.1% BSA, stored at −20° C. in 5 μl aliquots and discarded after one freeze-thaw cycle. Final concentration of agonist used in both dose-response and single point assays was 0.5 μM, prepared in assay buffer.
Antagonist equilibrium was established with 2 h preincubation, followed by no wash, direct addition, and stimulation of agonist for 30 minutes at 37° C. For detection of β-hexosaminidase activity, assay plates were centrifuged and 5 μl of cell-free supernatant from each assay well was transferred to a black-walled black-bottomed 384-well plate. Substrate solution (1 mM 4-Methylumbelliferyl N-acetyl-β-D-glucosaminide in citrate buffer, pH=4.5, […]) was added to each well and plates were incubated for 1 hour at 37° C. The plate was read on an EnVision XCite plate reader for umbelliferone fluorescence intensity (λex=355 nm, λem=460 nm). Background-subtracted data was analyzed using either GraphPad Prism or a custom Python script to calculate IC50 using either Log[Antagonist] vs. response (4 parameter) nonlinear regression (dose-response assays) or % control β-hexosaminidase activity (single point assays).

Row | IC50 (human MRGPRX2) | IC50 (LAD-2 cells) | SMILES | activity at 0.25 µM (LAD-2 cells)
1 | 3.5 nM | 34 nM | C[C@@H](C(=O)Nc1cn(Cc2cc(F)cc(F)c2)c(C(F)F)n1)N1CCC(F)(F)[C@@H](c2c[nH]c(=O)c(CO)c2)C1 (single isomer, unassigned) [Compound 490] | 
2 | > 30000 nM | > 3000 nM | C[C@@H](C(=O)Nc1cn2c(n1)CC[C@@H]2c1cc(F)cc(F)c1)N1CCC(F)(F)[C@@H](c2ccc(=O)[nH]c2)C1 (single isomer, unassigned) [Compound 493] | 
3 | 686 nM | 79 nM | C[C@H](C(=O)Nc1cn2c(n1)CC[C@@H]2c1cc(F)cc(F)c1)N1CCCCC1 (single isomer, unassigned) [Compound 498] | 
4 | > 30000 nM | > 3000 nM | C[C@H](C(=O)Nc1cn2c(n1)CC[C@H]2c1cc(F)cc(F)c1)N1CCCCC1 (single isomer, unassigned) [Compound 499] | 
5 | > 30000 nM | > 3000 nM | C[C@@H](C(=O)Nc1cn2c(n1)CC[C@H]2c1cc(F)cc(F)c1)N1CCCCC1 (single isomer, unassigned) [Compound 500] | 
6 |  |  | C[C@@H](C(=O)Nc1nc2n(n1)[C@@H](c1cc(F)cc(F)c1)CC2)N1CCC(F)(F)[C@@H](c2ccc(=O)[nH]c2)C1 (single isomer, unassigned) [Compound 501] | 101%
7 |  |  | C[C@@H](C(=O)Nc1nc2n(n1)[C@H](c1cc(F)cc(F)c1)CC2)N1CCC(F)(F)[C@@H](c2ccc(=O)[nH]c2)C1 (single isomer, unassigned) [Compound 502] | 44%
8 |  |  | C[C@@H](C(=O)Nc1cn2c(n1)CC[C@@H]2c1cc(F)ccc1F)N1CCC(F)(F)[C@@H](c2ccc(=O)[nH]c2)C1 (single isomer, unassigned) [Compound 503] | 105%
9 |  | 31 nM | C[C@@H](C(=O)Nc1cn2c(n1)CC[C@H]2c1cc(F)ccc1F)N1CCC(F)(F)[C@@H](c2ccc(=O)[nH]c2)C1 (single isomer, unassigned) [Compound 504] | 13%
10 |  | > 3000 nM | C[C@@H](C(=O)Nc1cn2c(n1)CC[C@@H]2c1ccc(F)cc1F)N1CCC(F)(F)[C@@H](c2ccc(=O)[nH]c2)C1 (single isomer, unassigned) [Compound 505] | 106%
11 |  | 30 nM | C[C@@H](C(=O)Nc1cn2c(n1)CC[C@H]2c1ccc(F)cc1F)N1CCC(F)(F)[C@@H](c2ccc(=O)[nH]c2)C1 (single isomer, unassigned) [Compound 506] | 
12 |  |  | C[C@@H](C(=O)Nc1cn2c(n1)CCC[C@@H]2c1cc(F)cc(F)c1)N1CCC(F)(F)[C@@H](c2ccc(=O)[nH]c2)C1 (single isomer, unassigned) [Compound 507] | 130%
13 |  |  | C[C@@H](C(=O)Nc1cn2c(n1)CCC[C@H]2c1cc(F)cc(F)c1)N1CCC(F)(F)[C@@H](c2ccc(=O)[nH]c2)C1 (single isomer, unassigned) [Compound 508] | 110%
14 |  |  | C[C@@H](C(=O)Nc1cn2c(n1)CC[C@@H]2c1cc(F)cc(F)c1)N1CCC(F)(F)CC1 (single isomer, unassigned) [Compound 509] | 11%
15 |  |  | C[C@@H](C(=O)Nc1cn2c(n1)CC[C@H]2c1cc(F)cc(F)c1)N1CCC(F)(F)CC1 (single isomer, unassigned) [Compound 510] | 87%
16 |  | 0.81 nM | C[C@@H](C(=O)Nc1cc2n(n1)CC[C@@H]2c1cc(F)cc(F)c1)N1CCC(F)(F)[C@@H](c2ccc(=O)[nH]c2)C1 (single isomer, unassigned) [Compound 530] | 
17 | 592 nM | 614 nM | C[C@@H](C(=O)Nc1cc2n(n1)CC[C@H]2c1cc(F)cc(F)c1)N1CCC(F)(F)[C@@H](c2ccc(=O)[nH]c2)C1 (single isomer, unassigned) [Compound 531] | 
18 |  |  | C[C@@H](C(=O)Nc1cn2c(n1)CC[C@@H]2c1cc(F)cc(F)c1)N1CCC(F)(F)[C@@H](c2c[nH]c(=O)c([C@H](N)C(F)F)c2)C1 (single isomer, unassigned) [Compound 536] | 89%
19 |  |  | C[C@@H](C(=O)Nc1cn2c(n1)CC[C@@H]2c1cc(F)cc(F)c1)N1CCC(F)(F)[C@H](c2c[nH]c(=O)c([C@H](N)C(F)F)c2)C1 (single isomer, unassigned) [Compound 537] | 10%
20 |  |  | C[C@@H](C(=O)Nc1cn2c(n1)CC[C@@H]2c1cc(F)cc(F)c1)N1CCC(F)(F)[C@@H](c2c[nH]c(=O)c([C@@H](N)C(F)F)c2)C1 (single isomer, unassigned) [Compound 538] | 81%
21 |  |  | C[C@@H](C(=O)Nc1cn2c(n1)CC[C@@H]2c1cc(F)cc(F)c1)N1CCC(F)(F)[C@H](c2c[nH]c(=O)c([C@@H](N)C(F)F)c2)C1 (single isomer, unassigned) [Compound 539] | 12%
22 |  |  | C[C@@H](C(=O)Nc1cn2c(n1)CC[C@@H]2c1cc(F)cc(F)c1)N1CCC(F)(F)[C@@H](c2c[nH]c(=O)c(C(N)C(F)(F)F)c2)C1 (single isomer, unassigned) [Compound 540] | 124%
23 |  |  | C[C@@H](C(=O)Nc1cn2c(n1)CC[C@@H]2c1cc(F)cc(F)c1)N1CCC(F)(F)[C@H](c2c[nH]c(=O)c(C(N)C(F)(F)F)c2)C1 (single isomer, unassigned) [Compound 541] | 11%
24 |  |  | C[C@@H](C(=O)Nc1cn2c(n1)CC[C@@H]2c1cc(F)cc(F)c1)N1CCC(F)(F)[C@@H](c2c[nH]c(=O)c(CN3CCC(F)(F)CC3)c2)C1 (single isomer, unassigned) [Compound 542] | 126%
25 |  |  | C[C@@H](C(=O)Nc1cn2c(n1)CC[C@@H]2c1cc(F)cc(F)c1)N1CCC(F)(F)[C@H](c2c[nH]c(=O)c(CN3CCC(F)(F)CC3)c2)C1 (single isomer, unassigned) [Compound 543] | 59%
26 |  |  | C[C@@H](C(=O)Nc1cn2c(n1)CC[C@@H]2c1cc(F)cc(F)c1)N1CCC(F)(F)C(c2c[nH]c(=O)c(CO)n2)C1 (stereo partly drawn) [Compound 544, (2S)-2-(4,4-difluoro-3-(6-(hydroxymethyl)-5-oxo-4,5-dihydropyrazin-2-yl)piperidin-1-yl)-N—((R)-5-(3,5-difluorophenyl)-6,7-dihydro-5H-pyrrolo[1,2-a]imidazol-2-yl)propanamide] | 81%
27 |  |  | C[C@@H](C(=O)Nc1cn2c(n1)CC[C@@H]2c1cc(F)cc(F)c1)N1CCC(F)(F)C(c2cc[n+]([O-])c(C(O)CO)c2)C1 (stereo partly drawn) [Compound 545, 4-(1-((S)-1-(((R)-5-(3,5-difluorophenyl)-6,7-dihydro-5H-pyrrolo[1,2-a]imidazol-2-yl)amino)-1-oxopropan-2-yl)-4,4-difluoropiperidin-3-yl)-2-(1,2-dihydroxyethyl)pyridine 1-oxide] | 16%
28 |  |  | C[C@@H](C(=O)Nc1cn2c(n1)CC[C@@H]2c1cc(F)cc(F)c1)N1CCC(F)(F)C(c2c[nH]c(=O)c(C(O)CO)c2)C1 (stereo partly drawn) [Compound 546, (2S)—N—((R)-5-(3,5-difluorophenyl)-6,7-dihydro-5H-pyrrolo[1,2-a]imidazol-2-yl)-2-(3-(5-(1,2-dihydroxyethyl)-6-oxo-1,6-dihydropyridin-3-yl)-4,4-difluoropiperidin-1-yl)propanamide] | 34%
